From patent US5585353A, “Antibiotic peptides containing D-amino acids” (The Rockefeller University, priority 1994, dated 1996)
Residues, ends and D or L forms follow the SMILES beside them. No end group written: not given here.

What was measured:
Format in all cases: cell-based
Sheep red cells = assay: inhibition zone assay, lethal concentration on sheep red cells; conditions: thin agarose plates
Experimental: (§1) Thin agar or agarose plates (8.5 cm diameter) were prepared with 6 ml of rich medium containing 100 ug/ml of streptomycin and 2×10^5 viable cells of a test organism resistant to streptomycin. Wells of 3.5 mm diameter were punched in the plates and 3 ul of serially diluted samples were placed in the wells. The diameters of the zones of inhibition around the wells were measured after overnight incubation at 30° or 37° C. For each peptide the squares of the zone diameters were plotted against the logarithm of the concentration, and from the slopes and intercepts the lethal concentrations were calculated as described by Hultmark (1983) EMBO J. 2, 571-76 or Hultmark et al (1982) Eur. J. Biochem. 127 207-217 each of which being incorporated herein by reference.
(§2) Lethal Concentrations calculated from inhibition zones on thin agarose
(§3) S. aureus Cowan 1; Strep: S. pyogenes; SRC: Sheep red cells.; *all amino

S. pyogenes = assay: inhibition zone assay, lethal concentration; conditions: thin agarose plates
Experimental: as §1, §2, §3

S. aureus Cowan 1 = assay: inhibition zone assay, lethal concentration; conditions: S. aureus Cowan 1, thin agarose plates
Experimental: as §1, §2
aeruginosa; Bs11: B. subtilis; +ME: plates prepared with medium E; Staph:
as §3

P. aeruginosa OT97 = assay: inhibition zone assay, lethal concentration; conditions: P. aeruginosa OT97, thin agarose plates
Experimental: as §1, §2
(§4) plates seeded with the respective organisms. D21: E. coli; OT97: P.
(§5) aeruginosa; Bs11: B. subtilis; +ME: plates prepared with medium E; Staph: […]

B. subtilis Bs11 = assay: inhibition zone assay, lethal concentration; conditions: for Lethal Concentrations Bs11 +ME: B. subtilis Bs11, plates prepared with medium E; for Lethal Concentrations Bs11: B. subtilis Bs11, thin agarose plates
Experimental: as §1, §2, §5

E. coli D21 = assay: inhibition zone assay, lethal concentration; conditions: E. coli D21, thin agarose plates
Experimental: as §1, §2, §4

## CC[C@H](C)[C@H](NC(=O)CNC(=O)[C@H](CCC(N)=O)NC(=O)CNC(=O)[C@@H](NC(=O)[C@H](CCCCN)NC(=O)[C@H](CCC(=O)O)NC(=O)[C@@H](NC(=O)[C@H](CCCCN)NC(=O)[C@H](CCCCN)NC(=O)[C@H](Cc1ccccc1)NC(=O)[C@H](CC(C)C)NC(=O)[C@H](CCCCN)NC(=O)[C@H](Cc1c[nH]c2ccccc12)NC(=O)[C@@H](N)CCCCN)[C@@H](C)CC)C(C)C)C(=O)NCC(=O)N[C@@H](C)C(=O)N[C@H](C(=O)N[C@@H](CC(C)C)C(=O)N[C@@H](CCCCN)C(=O)N[C@H](C(=O)N[C@@H](CC(C)C)C(=O)N[C@H](C(=O)N[C@H](C(=O)NCC(=O)N[C@@H](CC(C)C)C(N)=O)[C@@H](C)O)[C@@H](C)O)C(C)C)C(C)C [Compound 3]
Sheep red cells
  Lethal Concentrations SRC: > 200 µM

## CC[C@@H](C)[C@@H](NC(=O)CNC(=O)[C@@H](CCC(N)=O)NC(=O)CNC(=O)[C@H](NC(=O)[C@@H](CCCCN)NC(=O)[C@@H](CCC(=O)O)NC(=O)[C@H](NC(=O)[C@@H](CCCCN)NC(=O)[C@@H](CCCCN)NC(=O)[C@@H](Cc1ccccc1)NC(=O)[C@@H](CC(C)C)NC(=O)[C@@H](CCCCN)NC(=O)[C@@H](Cc1c[nH]c2ccccc12)NC(=O)[C@H](N)CCCCN)[C@H](C)CC)C(C)C)C(=O)NCC(=O)N[C@H](C)C(=O)N[C@@H](C(=O)N[C@H](CC(C)C)C(=O)N[C@H](CCCCN)C(=O)N[C@@H](C(=O)N[C@H](CC(C)C)C(=O)N[C@@H](C(=O)N[C@@H](C(=O)NCC(=O)N[C@H](CC(C)C)C(N)=O)[C@H](C)O)[C@H](C)O)C(C)C)C(C)C [Compound 4]
Sheep red cells
  Lethal Concentrations SRC: 500 µM

## CC[C@H](C)[C@H](NC(=O)CNC(=O)[C@@H](NC(=O)[C@H](CCCCN)NC(=O)[C@H](CCCCN)NC(=O)[C@H](Cc1ccccc1)NC(=O)[C@H](CC(C)C)NC(=O)[C@H](CCCCN)NC(=O)[C@H](Cc1c[nH]c2ccccc12)NC(=O)[C@@H](N)CCCCN)[C@@H](C)CC)C(=O)NCC(=O)N[C@@H](C)C(=O)N[C@H](C(=O)N[C@@H](CC(C)C)C(=O)N[C@@H](CCCCN)C(=O)N[C@H](C(=O)N[C@@H](CC(C)C)C(=O)N[C@H](C(=O)N[C@H](C(=O)NCC(=O)N[C@@H](CC(C)C)C(=O)N1CCC[C@H]1C(=O)N[C@@H](C)C(=O)N[C@@H](CC(C)C)C(=O)N[C@H](C(=O)N[C@@H](CO)C(N)=O)[C@@H](C)CC)[C@@H](C)O)[C@@H](C)O)C(C)C)C(C)C [Compound 6]
Sheep red cells
  Lethal Concentrations SRC: > 600 µM

## CC[C@@H](C)[C@@H](NC(=O)CNC(=O)[C@H](NC(=O)[C@@H](CCCCN)NC(=O)[C@@H](CCCCN)NC(=O)[C@@H](Cc1ccccc1)NC(=O)[C@@H](CC(C)C)NC(=O)[C@@H](CCCCN)NC(=O)[C@@H](Cc1c[nH]c2ccccc12)NC(=O)[C@H](N)CCCCN)[C@H](C)CC)C(=O)NCC(=O)N[C@H](C)C(=O)N[C@@H](C(=O)N[C@H](CC(C)C)C(=O)N[C@H](CCCCN)C(=O)N[C@@H](C(=O)N[C@H](CC(C)C)C(=O)N[C@@H](C(=O)N[C@@H](C(=O)NCC(=O)N[C@H](CC(C)C)C(=O)N1CCC[C@@H]1C(=O)N[C@H](C)C(=O)N[C@H](CC(C)C)C(=O)N[C@@H](C(=O)N[C@H](CO)C(N)=O)[C@H](C)CC)[C@H](C)O)[C@H](C)O)C(C)C)C(C)C [Compound 7]
Sheep red cells
  Lethal Concentrations SRC: > 400 µM

## CC[C@@H](C)[C@@H](NC(=O)CN)C(=O)NCC(=O)N[C@H](CCCCN)C(=O)N[C@H](Cc1ccccc1)C(=O)N[C@H](CC(C)C)C(=O)N[C@H](Cc1c[nH]cn1)C(=O)N[C@H](CO)C(=O)N[C@H](C)C(=O)N[C@H](CCCCN)C(=O)N[C@H](CCCCN)C(=O)N[C@H](Cc1ccccc1)C(=O)NCC(=O)N[C@H](CCCCN)C(=O)N[C@H](C)C(=O)N[C@H](Cc1ccccc1)C(=O)N[C@@H](C(=O)NCC(=O)N[C@H](CCC(=O)O)C(=O)N[C@@H](C(=O)N[C@H](CCSC)C(=O)N[C@H](CC(N)=O)C(=O)N[C@H](CO)C(N)=O)[C@H](C)CC)C(C)C [Compound 9] (HELM PEPTIDE1{G.[dI].G.[dK].[dF].[dL].[dH].[dS].[dA].[dK].[dK].[dF].G.[dK].[dA].[dF].[dV].G.[dE].[dI].[dM].[dN].[dS].[am]}$$$$V2.0)
S. pyogenes
  Lethal Concentrations Strep: 3 µM
S. aureus Cowan 1
  Lethal Concentrations Staph: 100 µM
P. aeruginosa OT97
  Lethal Concentrations OT97: 30 µM
B. subtilis Bs11
  Lethal Concentrations Bs11 +ME: 4 µM
  Lethal Concentrations Bs11: 3 µM
Sheep red cells
  Lethal Concentrations SRC: > 400 µM
E. coli D21
  Lethal Concentrations D21: 1 µM

## CC[C@H](C)[C@H](NC(=O)CN)C(=O)NCC(=O)N[C@@H](C)C(=O)N[C@H](C(=O)N[C@@H](CC(C)C)C(=O)N[C@@H](CCCCN)C(=O)N[C@H](C(=O)N[C@@H](CC(C)C)C(=O)N[C@H](C(=O)N[C@H](C(=O)NCC(=O)N[C@@H](CC(C)C)C(=O)N1CCC[C@H]1C(=O)N[C@@H](C)C(=O)N[C@@H](CC(C)C)C(=O)N[C@H](C(=O)N[C@@H](CO)C(=O)N[C@@H](Cc1c[nH]c2ccccc12)C(=O)N[C@H](C(=O)N[C@@H](CCCCN)C(=O)N[C@@H](CCCNC(=N)N)C(=O)N[C@@H](CCCCN)C(=O)N[C@@H](CCCNC(=N)N)C(=O)N[C@@H](CCC(N)=O)C(=O)N[C@@H](CCC(N)=O)C(N)=O)[C@@H](C)CC)[C@@H](C)CC)[C@@H](C)O)[C@@H](C)O)C(C)C)C(C)C [Compound 10, Melittin]
S. pyogenes
  Lethal Concentrations Strep: 0.5 µM
S. aureus Cowan 1
  Lethal Concentrations Staph: 0.2 µM
P. aeruginosa OT97
  Lethal Concentrations OT97: 3 µM
B. subtilis Bs11
  Lethal Concentrations Bs11 +ME: 0.3 µM
  Lethal Concentrations Bs11: 0.2 µM
Sheep red cells
  Lethal Concentrations SRC: 4 to 8 µM
E. coli D21
  Lethal Concentrations D21: 0.8 µM

## GIGKFLHSAKKFGKAFVGEIMNS-NH2 [Compound 8]
S. pyogenes
  Lethal Concentrations Strep: 4 µM
S. aureus Cowan 1
  Lethal Concentrations Staph: 300 µM
P. aeruginosa OT97
  Lethal Concentrations OT97: 30 µM
B. subtilis Bs11
  Lethal Concentrations Bs11 +ME: 8 µM
  Lethal Concentrations Bs11: 3 µM
Sheep red cells
  Lethal Concentrations SRC: 300 µM
E. coli D21
  Lethal Concentrations D21: 4 µM
